Results taken from ChEMBL document CHEMBL3885861, “Open TG-GATES”.

Species: Rattus norvegicus
Assay: Open TG-GATES - Regimen: Single
Format: toxicity, organism-based, Sprague-Dawley
Set-up: regimen Single, gender Male, age 6 weeks
Conditions: in vivo, po, 45 mg/kg, route gavage, dose level High; for APTT / Bas / Eos / Fbg / Hb / Ht / Lym / MCH / MCHC / MCV / Mono / Neu / PT / Plat / RBC / Ret / WBC: tissue Blood; for KIDNEY_L / KIDNEY_R / KIDNEY_TOTAL: tissue Kidney; for LIVER: tissue Liver; for A/G / ALP / ALT / AST / BUN / CRE / Ca / Cl / DBIL / GLC / IP / K / LDH / Na / PL / RALB / TBIL / TC / TG / TP / gamma-GTP: tissue Plasma

Compound: CC(=N)S [THIOACETAMIDE]
- TERMINAL_BW (3 h): 189.5 g
- APTT (3 h): 17.3 s
- Bas (3 h): 0%
- Eos (3 h): 0.6%
- Fbg (3 h): 232.5 mg/dL
- Hb (3 h): 13.5 g/dL
- Ht (3 h): 41%
- Lym (3 h): 71.2%
- MCH (3 h): 21.6 pg
- MCHC (3 h): 33%
- MCV (3 h): 65.4 fL
- Mono (3 h): 8.6%
- Neu (3 h): 20%
- PT (3 h): 12.4 s
- Plat (3 h): 115.5 x10_4/uL
- RBC (3 h): 627 x10_4/ul
- Ret (3 h): 9.5%
- WBC (3 h): 129.7 x10_2/uL
- KIDNEY_L (3 h): 0.8 g
- KIDNEY_R (3 h): 0.8 g
- KIDNEY_TOTAL (3 h): 1.7 g
- LIVER (3 h): 8.7 g
- A/G (3 h): 2
- ALP (3 h): 923 IU/L
- ALT (3 h): 36 IU/L
- AST (3 h): 73.6 IU/L
- BUN (3 h): 13.6 mg/dL
- CRE (3 h): 0.5 mg/dL
- Ca (3 h): 10.9 mg/dL
- Cl (3 h): 104.6 meq/L
- DBIL (3 h): 0 mg/dL
- GLC (3 h): 169.2 mg/dL
- IP (3 h): 9.7 mg/dL
- K (3 h): 4.4 meq/L
- LDH (3 h): 200.6 IU/L
- Na (3 h): 139.6 meq/L
- PL (3 h): 137.6 mg/dL
- RALB (3 h): 3.8 g/dL
- TBIL (3 h): 0.4 mg/dL
- TC (3 h): 84 mg/dL
- TG (3 h): 54.8 mg/dL
- TP (3 h): 5.6 g/dL
- gamma-GTP (3 h): 2 IU/L
- TERMINAL_BW (6 h): 187 g
- APTT (6 h): 17.2 s
- Bas (6 h): 0%
- Eos (6 h): 0.2%
- Fbg (6 h): 230.4 mg/dL
- Hb (6 h): 13.7 g/dL
- Ht (6 h): 41.3%
- Lym (6 h): 71%
- MCH (6 h): 21.8 pg
- MCHC (6 h): 33.1%
- MCV (6 h): 66 fL
- Mono (6 h): 6.2%
- Neu (6 h): 22.2%
- PT (6 h): 12.9 s
- Plat (6 h): 104.7 x10_4/uL
- RBC (6 h): 627.2 x10_4/ul
- Ret (6 h): 9.9%
- WBC (6 h): 118 x10_2/uL
- KIDNEY_L (6 h): 0.8 g
- KIDNEY_R (6 h): 0.8 g
- KIDNEY_TOTAL (6 h): 1.6 g
- LIVER (6 h): 8 g
- A/G (6 h): 1.9
- ALP (6 h): 836.6 IU/L
- ALT (6 h): 33.8 IU/L
- AST (6 h): 75.2 IU/L
- BUN (6 h): 10.2 mg/dL
- CRE (6 h): 0.6 mg/dL
- Ca (6 h): 10.4 mg/dL
- Cl (6 h): 104.4 meq/L
- DBIL (6 h): 0.024 mg/dL
- GLC (6 h): 162.4 mg/dL
- IP (6 h): 9.9 mg/dL
- K (6 h): 4.7 meq/L
- LDH (6 h): 155.4 IU/L
- Na (6 h): 138.2 meq/L
- PL (6 h): 129.8 mg/dL
- RALB (6 h): 3.6 g/dL
- TBIL (6 h): 0.4 mg/dL
- TC (6 h): 79.4 mg/dL
- TG (6 h): 34.8 mg/dL
- TP (6 h): 5.5 g/dL
- gamma-GTP (6 h): 1.8 IU/L
- TERMINAL_BW (9 h): 189.4 g
- APTT (9 h): 17 s
- Bas (9 h): 0%
- Eos (9 h): 0.6%
- Fbg (9 h): 224.4 mg/dL
- Hb (9 h): 13.1 g/dL
- Ht (9 h): 39.6%
- Lym (9 h): 71%
- MCH (9 h): 21.8 pg
- MCHC (9 h): 33%
- MCV (9 h): 66 fL
- Mono (9 h): 7.4%
- Neu (9 h): 21%
- PT (9 h): 14.1 s
- Plat (9 h): 100.8 x10_4/uL
- RBC (9 h): 600 x10_4/ul
- Ret (9 h): 10%
- WBC (9 h): 126.2 x10_2/uL
- KIDNEY_L (9 h): 0.8 g
- KIDNEY_R (9 h): 0.9 g
- KIDNEY_TOTAL (9 h): 1.7 g
- LIVER (9 h): 8 g
- A/G (9 h): 2
- ALP (9 h): 886 IU/L
- ALT (9 h): 41.2 IU/L
- AST (9 h): 93.2 IU/L
- BUN (9 h): 12.6 mg/dL
- CRE (9 h): 0.5 mg/dL
- Ca (9 h): 10.4 mg/dL
- Cl (9 h): 104.6 meq/L
- DBIL (9 h): 0.008 mg/dL
- GLC (9 h): 168.4 mg/dL
- IP (9 h): 10.4 mg/dL
- K (9 h): 4.4 meq/L
- LDH (9 h): 229.2 IU/L
- Na (9 h): 137.4 meq/L
- PL (9 h): 134.8 mg/dL
- RALB (9 h): 3.6 g/dL
- TBIL (9 h): 0.4 mg/dL
- TC (9 h): 84.8 mg/dL
- TG (9 h): 32.4 mg/dL
- TP (9 h): 5.4 g/dL
- gamma-GTP (9 h): 1.8 IU/L
- TERMINAL_BW (24 h): 186.6 g
- APTT (24 h): 21.2 s
- Bas (24 h): 0%
- Eos (24 h): 0.6%
- Fbg (24 h): 232 mg/dL
- Hb (24 h): 14.7 g/dL
- Ht (24 h): 44.9%
- Lym (24 h): 69.8%
- MCH (24 h): 21.2 pg
- MCHC (24 h): 32.8%
- MCV (24 h): 64.6 fL
- Mono (24 h): 1.8%
- Neu (24 h): 27.8%
- PT (24 h): 15.7 s
- Plat (24 h): 104.8 x10_4/uL
- RBC (24 h): 695.6 x10_4/ul
- Ret (24 h): 9%
- WBC (24 h): 91 x10_2/uL
- KIDNEY_L (24 h): 0.9 g
- KIDNEY_R (24 h): 0.9 g
- KIDNEY_TOTAL (24 h): 1.8 g
- LIVER (24 h): 9.3 g
- A/G (24 h): 2
- ALP (24 h): 1017.6 IU/L
- ALT (24 h): 137.2 IU/L
- AST (24 h): 713.8 IU/L
- BUN (24 h): 15.2 mg/dL
- CRE (24 h): 0.5 mg/dL
- Ca (24 h): 10.4 mg/dL
- Cl (24 h): 102.4 meq/L
- DBIL (24 h): 0.046 mg/dL
- GLC (24 h): 152 mg/dL
- IP (24 h): 8.5 mg/dL
- K (24 h): 4.7 meq/L
- LDH (24 h): 1117 IU/L
- Na (24 h): 135.8 meq/L
- PL (24 h): 142 mg/dL
- RALB (24 h): 3.8 g/dL
- TBIL (24 h): 0.3 mg/dL
- TC (24 h): 86.8 mg/dL
- TG (24 h): 64.6 mg/dL
- TP (24 h): 5.8 g/dL
- gamma-GTP (24 h): 1 IU/L
